Results taken from article PMC12812011 (Chemmedchem, 2025).
“Also recorded” adds a separate entry of the source.

Columns and labels:
[1] = tested on: SARS-CoV-2 infection; conditions: cited from earlier work; for benefit to COVID-19 patients: clinical trials, oral (camostat), intravenous (nafamostat)
[2] = tested on: SARS-CoV-2; design: method as in PMID 32142651, PMID 33676899, PMID 33393462, PMID 32312781, PMID 35382133; conditions: cell culture; cited from earlier work
[3] = tested on: pseudotyped particles bearing the SARS-CoV-2 B.1 S protein; format: cell-based; conditions: TMPRSS2-independent (cathepsin L-dependent) entry
[4] = tested on: particles pseudotyped with the glycoprotein of vesicular stomatitis virus (VSV-G); format: cell-based
[5] = tested on: pseudotyped particles bearing the SARS-CoV-2 B.1 S protein; format: cell-based; conditions: TMPRSS2-dependent entry
[6] = tested on: particles pseudotyped with the glycoprotein of vesicular stomatitis virus (VSV-G); format: cell-based; remark: listed apart in the source
[7] = tested on: salmon testes DNA; test: UV-thermal DNA denaturation with salmon testes DNA; conditions: compound to DNA base ratio 0.1, phosphate buffer pH 7
Description: UV thermal denaturation experiments
Thermal melting experiments were conducted with a Varian Cary 300 Bio spectrophotometer equipped
with a 6×6 multicell temperature-controlled block. Temperatures were monitored with a thermistor
inserted into a 1 cm quartz cuvette containing the same volume of water as in the sample cells. Absorbance
changes at 260 nm were monitored from a range of 30 °C to 90 °C with a heating rate of 1 °C min -1 and a
data collection rate of five points per °C. The salmon sperm DNA was purchased from Sigma Aldrich
(extinction coefficient ε260= 6600 M-1 cm-1). A quartz cell with a 1 cm path length was filled with a 1 mL
solution of DNA or DNA-compound complex.
were prepared in a phosphate buffer ([10 mM K2HPO4/KH2PO4], adjusted to pH 7) so that a compound to
DNA base ratio of 0.1 was obtained. The thermal melting temperatures of the duplex or duplex-compound
complex obtained from the first derivative of the melting curves are reported.

[8] = tested on: MCF-10A cells; test: AlamarBlue cell viability assay; conditions: concentrations up to 100 µM
[9] = tested on: poly(dA•dT)2; design: method as in PMID 18247550; conditions: DNA oligo rich in AT pairs; cited from earlier work

## CN(C)C(=O)COC(=O)Cc1ccc(OC(=O)c2ccc(NC(=N)N)cc2)cc1 [Camostat, camostat]
[1]
  benefit to COVID-19 patients: little if any benefit
[2]
  inhibition of SARS-CoV-2 infection: inhibit SARS‐CoV‐2 infection with high efficiency
[3]
  SARS-CoV-2 S protein-driven entry into Vero76 cells: not inhibited
[4]
  VSV-G-driven entry into Vero76 cells: not inhibited
[5]
  SARS-CoV-2 S protein-mediated entry into Calu-3 cells: inhibited
[6]
  VSV-G-driven entry into Calu-3 cells: reverse observation

## N=C(N)Nc1ccc(NC(=S)Nc2ccccc2)cc1 [Compound 2]
[7]
  ΔTm: 0.65 °C
[8]
  IC50: could not be found
[8]; 72 hours
  cytotoxicity (cell death): no cytotoxicity; also recorded: no significant cell‐death was detected

## N=C(N)Nc1ccc(NC(=S)Nc2ccccn2)cc1 [Compound 20]
[7]
  ΔTm: −0.25 °C

## N=C(N)c1ccc2cc(OC(=O)c3ccc(N=C(N)N)cc3)ccc2c1 [Nafamostat, nafamostat]
[1]
  benefit to COVID-19 patients: little if any benefit

## CCN(CC)CCCC(C)Nc1ccnc2cc(Cl)ccc12 (centres unmarked) [chloroquine]
[3]
  SARS-CoV-2 S protein-driven entry into Vero76 cells: reduced by the highest concentration
[4]
  VSV-G-driven entry into Vero76 cells: reduced by the highest concentration
[6]
  VSV-G-driven entry into Calu-3 cells: reverse observation

## N=C(N)Nc1ccc(NC(=S)Nc2ccc(NC(=N)N)cc2)cc1 [hit‐compound]
[9]
  ΔTm: 23.0 °C

## aprotinin
[1]; aerosolized
  clinical benefit in COVID-19 patients: of clinical benefit
  tolerability in COVID-19 patients: well tolerated
